Tests used:
[1] = Cytotoxicity assay in J774A1 macrophages (MTT, 48 h); assay type: cell-based; conditions: mouse, pH 7.2, J774A1, 50% inhibition of growth
Method: (§1) All the novel trifluoromethylated pyrazoles derivatives 2a–f, 3a–f, and 4a–f were evaluated against the promastigote form of L. amazonensis and the epimastigote form of T. cruzi. The results are reported as the concentration causing a 50% inhibition in cell growth (IC50). Additionally, the toxicity of compounds was evaluated against two different cell lines: epithelial cell LLCMK2 and macrophages J774A1. The antiproliferative and cytotoxic activities are shown in Table 2 , as well as the calculated selectivity index (SI).
(§2) 2.4. Antiproliferative activity […]
(§3) Cytotoxicity activity was determined in LLCMK2 (epithelial cells of kidney of Macaca
(§4) mulatta) cells and J774A1 macrophages. LLCMK2 (epithelial cells of kidney of Macaca mulatta) cells
(§5) were cultured in Dulbecco’s modified Eagle’s medium (DMEM, pH 7.2) supplemented with 10% FBS
(§6) at 37 °C in a 5% CO2 atmosphere. J774A1 macrophages were cultured in RPMI-1640 (pH 7.2) medium
(§7) supplemented with 10% FBS at 37 °C in a 5% CO2 atmosphere.
(§8) 2.4.2. Dilution of compounds
(§9) Stock solutions of the compounds were prepared in DMSO and then diluted in the respective
(§10) medium. The groups (controls and treated) were tested with DMSO concentrations below 1%, with
(§11) 2.4.3. Antiproliferative assay […]
(§12) 2.4.4. Cytotoxicity assay
(§13) LLCMK2 cells (2.5 × 10^5 cells/mL) suspension was prepared in DMEM medium supplemented
(§14) with 10% FBS and added to 96-well plates. Then, the plates were incubated at 37 °C in a
(§15) CO2 atmosphere for 24h to obtain confluent cell growth. After incubation, cells were treated or not
(§16) with different concentrations of compounds diluted in DMEM for 72 h. Macrophage (5 × 10^5 cells/mL)
(§17) suspension was prepared in RPMI-1640 medium supplemented with 10% FBS and added to 96-well
(§18) plates. Then, the plates were incubated at 37 °C in a CO2 atmosphere for 24h to obtain confluent cell
(§19) growth. After incubation, cells were treated or not with different concentrations of compounds diluted
(§20) in RPMI-1640 for 48h. After treatment, medium was removed and cells were incubated with MTT (2
(§21) mg/mL) for 4h. Then, DMSO was added for solubilization of the formazan and analyzed with a reading
(§22) microplate reader (BIO-TEK PowerWave XS spectrophotometer) at 392 nm. The percentage of viable
(§23) cells was calculated in relation to the control to determine the cytotoxic concentration to 50% of the […]

[2] = test system: epimastigote form of Trypanosoma cruzi; test: Antiproliferative assay, epimastigote form of Trypanosoma cruzi (XTT, 96 h); assay type: cell-based; conditions: for SI T-M, selectivity index (Macrophages CC50/T. cruzi IC50): J774A1 vs epimastigotes; for SI T-E, selectivity index (Epithelial CC50/T. cruzi IC50): LLCMK2 vs epimastigotes; for IC50: Trypanosoma cruzi, epimastigote form, 96 h, mean ± standard deviation, read-out: T. cruzi IC50
Method: as §1
(§24) 2.4. Antiproliferative activity
(§25) Promastigotes forms of Leishmania amazonensis (strain WHOM/ BR/75/JOSEFA) were
(§26) cultured in Warren medium (brain heart infusion, hemin, and folic acid; pH 7.4) supplemented with
(§27) 10% fetal bovine serum (FBS) at 25 °C. Epimastigote forms of Trypanosoma cruzi (Y strain) were
(§28) cultured in LIT medium (liver infusion tryptose; hemim, and folic acid; pH 7.4) supplemented with
as §3, §4, §5, §6, §7, §8, §9, §10
(§29) 2.4.3. Antiproliferative assay
(§30) Promastigote forms (1 × 10^6 parasites/mL) were cultured in 96-well plates in the presence and
(§31) absence of different concentrations of compounds diluted in Warren medium supplemented with 10%
(§32) FBS and incubated for 72h. Epimastigote forms (1 × 10^6 parasites/mL) were cultured in 96 -well plates
(§33) in the presence and absence of different concentrations of compounds diluted in LIT medium
(§34) supplemented with 10% FBS and incubated for 96h. After treatment, the parasites were incu bated with
(§35) a solution of 2,3 -bis (2 -methoxy -4-nitro -5-sulfophenyl) -2H-tetrazolium -5-carboxanilide (XTT; 0.5
(§36) mg/mL) and phenazine methanesulfonate activator (PMS; 0.06 mg/mL) in PBS for 4h. Then, the
(§37) absorbance was read in a microplate reader (Bio Tek - Power Wave XS) at 450 nm. The percentage of
(§38) viable parasites was calculated in relation to the control in order to determine the concentration that
(§39) inhibits 50% of the protozoa (IC 50).
as §12, §13, §14, §15, §16, §17, §18, §19, §20, §21

[3] = test system: promastigote form of Leishmania amazonensis; test: Antiproliferative assay, promastigote form of Leishmania amazonensis (XTT, 72 h); assay type: cell-based; conditions: for SI L-M, selectivity index (Macrophages CC50/L. amazonensis IC50): J774A1 vs promastigotes; for SI L-E, selectivity index (Epithelial CC50/L. amazonensis IC50): LLCMK2 vs promastigotes; for IC50: Leishmania amazonensis, promastigote form, 72 h, mean ± standard deviation, read-out: L. amazonensis IC50
Method: as §1, §24, §25, §26, §27, §28, §3, §4, §5, §6, §7, §8, §9, §10, §29, §30, §31, §32, §33, §34, §35, §36, §37, §38, §39, §12, §13, §14, §15, §16, §17, §18, §19, §20, §21

[4] = Cytotoxicity assay in LLCMK2 epithelial cells (MTT, 72 h); assay type: cell-based; conditions: Macaca mulatta, LLCMK2 kidney epithelial cells, pH 7.2, LLCMK2, 50% inhibition of growth
Method: as §1, §2, §3, §4, §5, §6, §7, §8, §9, §10, §11, §12, §13, §14, §15, §16, §17, §18, §19, §20, §21, §22, §23

Compound	IC50 [2] [µM]	melting point [°C]	CC50 at 48 h [1] [µM]	SI T-M, selectivity index (Macrophages CC50/T. cruzi IC50) [2]	SI T-E, selectivity index (Epithelial CC50/T. cruzi IC50) [2]	SI L-M, selectivity index (Macrophages CC50/L. amazonensis IC50) [3]	SI L-E, selectivity index (Epithelial CC50/L. amazonensis IC50) [3]	IC50 [3] [µM]	CC50 at 72 h [4] [µM]
NC(=S)NN=Cc1c(C(F)(F)F)nn(-c2ccccc2)c1-c1ccc([N+](=O)[O-])cc1 [2a, 4-[(2-carbamothioyl-hydrazinylidene)methyl]-3-trifluoromethyl-5-(4-nitrophenyl)-1-phenyl-1H-pyrazole]	45.7 ± 5	226.5	243 ± 3.6	5.32	6.62	9.10	11.33	26.7 ± 1.4	303 ± 5.8
NC(=S)NN=Cc1c(C(F)(F)F)nn(-c2ccccc2)c1-c1ccc(F)cc1 [2b, 4-[(2-carbamothioyl-hydrazinylidene)methyl]-3-trifluoromethyl-5-(4-fluorophenyl)-1-phenyl-1H-pyrazole]	69.3 ± 2.9	221.18	203 ± 5.9	2.92	4.99	4.09	6.97	49.6 ± 3.8	345.7 ± 2.6
NC(=S)NN=Cc1c(C(F)(F)F)nn(-c2ccccc2)c1-c1ccc(Cl)cc1 [2c, 4-[(2-carbamothioyl-hydrazinylidene)methyl]-5-(4-chlorophenyl)-3-trifluoromethyl-1-phenyl-1H-pyrazole]	49.2 ± 3.1	225.37	402 ± 8.3	8.17	7.66	9.02	8.45	44.6 ± 6.2	377 ± 5
NC(=S)NN=Cc1c(C(F)(F)F)nn(-c2ccccc2)c1-c1ccc(Br)cc1 [2d, 5-(4-bromophenyl)-4-[(2-carbamothioyl-hydrazinylidene)methyl]-3-trifluoromethyl-1-phenyl-1H-pyrazole]	30.3 ± 5.2		170 ± 7.2	5.60	4.89	8.98	7.85	18.9 ± 1.1	148 ± 6.9
NC(=S)NN=Cc1c(C(F)(F)F)nn(-c2ccccc2)c1-c1ccccc1 [2e, 4-[(2-carbamothioyl-hydrazinylidene)methyl]-3-trifluoromethyl-1,5-diphenyl-1H-pyrazole]	83.1 ± 5.3	211.27	400 ± 6.6	4.81	4.75	6.47	6.39	61.7 ± 2.9	394 ± 7.1
COc1ccc(-c2c(C=NNC(N)=S)c(C(F)(F)F)nn2-c2ccccc2)cc1 [2f, 4-[(2-carbamothioyl-hydrazinylidene)methyl]-3-trifluoromethyl-5-(4-methoxyphenyl)-1-phenyl-1H-pyrazole]	29.7 ± 2.6	212.65	180 ± 4.7	6.06	5.21	8.04	6.91	22.4 ± 3	155 ± 2.6

More lines, main results first:

IC50 [2] [µM]	melting point [°C]	Compound	CC50 at 48 h [1] [µM]	SI T-M, selectivity index (Macrophages CC50/T. cruzi IC50) [2]	SI T-E, selectivity index (Epithelial CC50/T. cruzi IC50) [2]	SI L-M, selectivity index (Macrophages CC50/L. amazonensis IC50) [3]	SI L-E, selectivity index (Epithelial CC50/L. amazonensis IC50) [3]	IC50 [3] [µM]	CC50 at 72 h [4] [µM]
24.1 ± 0.8	190.7	CSC(N)=NN=Cc1c(C(F)(F)F)nn(-c2ccccc2)c1-c1ccc([N+](=O)[O-])cc1 [3a]	221 ± 3.1	9.19	7.32	12.10	9.64	18.3 ± 2.4	176 ± 5.9
39.9 ± 3.2	145.5	CSC(N)=NN=Cc1c(C(F)(F)F)nn(-c2ccccc2)c1-c1ccc(F)cc1 [3b]	202 ± 3.4	5.07	2.99	5.90	3.48	34.3 ± 4.7	119 ± 3
25.7 ± 2.5		CSC(N)=NN=Cc1c(C(F)(F)F)nn(-c2ccccc2)c1-c1ccc(Br)cc1 [3d]	147 ± 3.6	5.71	4.44	10.55	8.20	13.9 ± 0.6	114 ± 3.8
19.1 ± 0.9		COc1ccc(-c2c(C=NN=C(N)SC)c(C(F)(F)F)nn2-c2ccccc2)cc1 [3f]	123 ± 3.1	6.43	5.30	8.65	7.13	14.2 ± 1.1	101 ± 2.4
65.6 ± 2.9		Nc1nnc(-c2c(C(F)(F)F)nn(-c3ccccc3)c2-c2ccccc2)s1 [4e, 4-[(2-amino)-1,3,4-thiadiazo-5-yl]-3-trifluoromethyl-1,5-diphenyl-1H-pyrazole]	340 ± 5.2	5.18	4.03	6.49	5.04	52.4 ± 3.5	264 ± 3.2

Reference: PMC7576996, “Antiparasitic Behavior of Trifluoromethylated Pyrazole 2-Amino-1,3,4-thiadiazole Hybrids and Their Analogues: Synthesis and Structure-Activity Relationship” (Frontiers in Pharmacology, 2020)
